System: Radical scavenging activity
Assay: Antioxidant activity assessed as DPPH radical scavenging activity after 30 mins by spectrophotometer
Assay type: functional

IC50	SMILES
7.5 µM	OCc1c(Br)c(O)c(O)c(Br)c1Br
8.5 µM	O=C1CCCC[C@@H]1Cc1c(Br)c(O)c(O)c(Br)c1Br [SYMPHYOKETONE]
15.3 µM	O=C1O[C@H]([C@@H](O)CO)C(O)=C1O [ASCORBIC ACID]
